The values below come from patent publication US5859007A, “CCK or gastrin modulating benzo [b][1,4] diazepines derivatives” (Glaxo Wellcome Inc., priority 1994, dated 1999).

This assay relates to isolated guinea pig gallbladder. The experiment in a line: Functional activity in isolated guinea pig gallbladder preparation. The class given is cell-based. The conditions noted are these: expressed as % CCK-induced maximal response; for activation at 1 µM / activation at 30 µM: Cavia porcellus; for activation at 1 µM: read-out: %Contraction (1 × 10^-6 M); for activation at 30 µM: 3 × 10^-5 M test compound, read-out: % Contraction (3 × 10^-5 M). As for the experimental part: 3. GUINEA PIG GALL BLADDER ASSAY
Gallbladders are removed from guinea pigs sacrificed by cervical dislocation. The isolated gallbladders are cleaned of adherent connective tissue and cut into two rings from each animal (2-4 mm in length). The rings are subsequently suspended in organ chambers containing a physiological salt solution (118.4 mM NaCl, 4.7 mM KCl, 1.2 mM MgSO4, 2.5 mM CaCl2, 1.2 mM KH2 […], 25 mM NaHCO3, 11.1 mM dextrose). The bathing solution is maintained at 37° C. and aerated with 95% O2 /5% CO2. Tissues are connected via gold chains and stainless steel mounting wires to isometric force displacement transducers (Grass, Model FT03 D). Responses are then recorded on a polygraph (Grass, Model 7E).
Rings are gradually stretched (over a 120 min. period) to a basal resting tension of 1 gm which is maintained throughout the experiment. During the basal tension adjustment period, the rings are exposed to acetylcholine (10^-6 M) four times to verify tissue contractility. The tissues are then exposed to a submaximal dose of sulfated CCK-8 (Sigma, 3×10^-9 M). After obtaining a stable response, the tissues are washed out 3 times rapidly and every 5 to 10 minutes for 1 hour to reestablish a stable baseline.
Compounds are dissolved in dimethylsulfoxide ([…]) followed by a concentration-response curve to sulfated CCK-8 (10^-10 to 10^-6 M) in the presence of the highest dose of the test compound. As a final test, ACH (10 mM) is added to induce maximal contraction. A minimum of three determinations of activity are made for each test compound.

Take `COCC1(CC(=O)Nc2ccccc2)C(=O)N(CC(=O)N(c2ccc(OC)cc2)C(C)C)c2ccccc2N(c2ccccc2)C1=O` (stereo not shown) [Example 26, N-Isopropyl-2-(3-methoxymethyl-2,4-dioxo-5-phenyl-3-phenylcarbamoylmethyl-2,3,4,5-tetrahydro-benzo[b][1,4]diazepin-1-yl)-N-(4-methoxy-phenyl)-acetamide]: the activation at 1 µM (1 × 10^-6 M test compound) was determined as 91%.
`COc1ccc(N(C(=O)CN2C(=O)C(Cc3nn(Cc4ccccc4)c4ccccc34)C(=O)N(c3ccccc3)c3ccccc32)C(C)C)cc1` (stereo not shown) [Example 27, 2-[3-(1-Benzyl-1H-indazol-3-ylmethyl)-2,4-dioxo-5-phenyl-2,3,4,5-tetrahydro-benzo[b][1,4]diazepin-1-yl]-N-isopropyl-N-(4-methoxy-phenyl) acetamide]: the activation at 30 µM was 40%.
Turning to `COc1ccc(N(C(=O)CN2C(=O)C(CN(C)C(=O)c3ccccc3)C(=O)N(c3ccccc3)c3ccccc32)C(C)C)cc1` (stereo not shown) [Example 28, N-{1-[Isopropyl-(4-methoxy-phenyl)-carbamoylmethyl]-2,4-dioxo-5 phenyl-2,3,4,5-tetrahydro-1H-benzo[b][1,4]diazepin-3-ylmethyl}-N-methyl benzamide], the activation at 1 µM (1 × 10^-6 M test compound) was determined as 3%.
For `COc1ccc(N(C(=O)CN2C(=O)C(CC(=O)O)(CC(=O)Nc3ccccc3)C(=O)N(c3ccccc3)c3ccccc32)C(C)C)cc1` (stereo not shown) [Example 29, {1-[Isopropyl-(4-methoxy-phenyl)-carbamoylmethyl]-2,4-dioxo-5-phenyl-3-phenylcarbamoylmethyl-2,3,4,5-tetrahydro-1H-benzo[b][1,4]diazepin-3-yl}acetic acid], the activation at 30 µM was determined as 85%. Further, the activation at 1 µM (1 × 10^-6 M test compound) is 65%.
Consider `COc1ccc(N(C(=O)CN2C(=O)C(C)(Cc3n[nH]c4ccccc34)C(=O)N(c3ccccc3)c3ccccc32)C(C)C)cc1` (stereo not shown) [Example 30, 2-[3-(1H-Indazol-3-ylmethyl)-3-methyl-2,4-dioxo-5-phenyl-2,3,4,5-tetrahydro-benzo[b][1,4]diazepin-1-yl]-N-isopropyl-N-(4-methoxy-phenyl) acetamide], for which the activation at 30 µM was found to be 70%. Moreover, the activation at 1 µM (1 × 10^-6 M test compound) is 75%.
For `COc1ccc(N(C(=O)CN2C(=O)C(Cc3coc4ccccc34)C(=O)N(c3ccccc3)c3ccccc32)C(C)C)cc1` (stereo not shown) [Example 32], the activation at 1 µM (1 × 10^-6 M test compound) came out at 38%.
In the case of `COc1ccc(N(C(=O)CN2C(=O)C(C)(Cc3coc4ccccc34)C(=O)N(c3ccccc3)c3ccccc32)C(C)C)cc1` (stereo not shown) [Example 33], the activation at 1 µM (1 × 10^-6 M test compound) was found to be 53%.
Same read-out and setting: the figure for `COc1ccc(N(C(=O)CN2C(=O)C(Cc3cccc4ccccc34)C(=O)N(c3ccccc3)c3ccccc32)C(C)C)cc1` (stereo not shown) [Example 34, N-Isopropyl-N-(4-methoxy-phenyl)-2-(3-naphthalen-1-ylmethyl-2,4-dioxo-5-phenyl-2,3,4,5-tetrahydro-benzo[b][1,4]diazepin-1-yl) acetamide] is 47%.
On the same count and under the same terms, the figure for `COc1ccc(N(C(=O)CN2C(=O)C(C)(Cc3cccc4ccccc34)C(=O)N(c3ccccc3)c3ccccc32)C(C)C)cc1` (stereo not shown) [Example 35, N-Isopropyl-N-(4-methoxy-phenyl)-2-(3-methyl-3-naphthalen-1-ylmethyl-2,4-dioxo-5-phenyl-2,3,4,5-tetrahydro-benzo[b][1,4]diazepin-1-yl) acetamide] is 44%; for `COc1ccc(N(C(=O)CN2C(=O)C(Cc3ccc4ccccc4c3)C(=O)N(c3ccccc3)c3ccccc32)C(C)C)cc1` (stereo not shown) [Example 36, N-Isopropyl-N-(4-methoxy-phenyl)-2-(3-naphthalen-2-ylmethyl-2,4-dioxo-5-phenyl-2,3,4,5-tetrahydro-benzo[b][1,4]diazepin-1-yl) acetamide] it is 19%.
Turning to `COc1ccc(N(C(=O)CN2C(=O)C(Cc3csc4ccccc34)C(=O)N(c3ccccc3)c3ccccc32)C(C)C)cc1` (stereo not shown) [Example 37, 2-(3-Benzo[b]thiophen-3-ylmethyl-2,4-dioxo-5-phenyl-2,3,4,5-tetrahydro-benzo[b][1,4]diazepin-1-yl)-N-isopropyl-N-(4-methoxy-phenyl) acetamide], the activation at 1 µM (1 × 10^-6 M test compound) was 46%.
Still for that read-out and setting: with `COc1ccc(N(C(=O)CN2C(=O)C(C)(Cc3ccc4ccccc4c3)C(=O)N(c3ccccc3)c3ccccc32)C(C)C)cc1` (stereo not shown) [Example 38, N-Isopropyl-N-(4-methoxy-phenyl)-2-(3-methyl-3-naphthalen-2-ylmethyl-2,4-dioxo-5-phenyl-2,3,4,5-tetrahydro-benzo[b][1,4]diazepin-1-yl) acetamide] the figure was 30%.
Turning to `COc1ccc(N(C(=O)CN2C(=O)C(CC(=O)Nc3ccccc3)C(=O)N(c3ccccc3)c3ccccc32)C(C)C)cc1` (stereo not shown) [Example 39, 2-(2,4-dioxo-5-phenyl-3-phenylcarbamoylmethyl-2,3,4,5-tetrahydro-benzo[b][1,4]diazepin-1-yl)-N-isopropyl-N-(4-methoxy-phenyl)-acetamide], under “1 × 10^-6 M test compound”, the “%Contraction (1 × 10^-6 M)” value is recorded as 57%.
For the compound `COc1ccc(N(C(=O)CN2C(=O)C(C)(Cc3csc4ccccc34)C(=O)N(c3ccccc3)c3ccccc32)C(C)C)cc1` (stereo not shown) [Example 40, 2-(3-Benzo[b]thiophen-3-ylmethyl-3-methyl-2,4-dioxo-5-phenyl-2,3,4,5-tetrahydro-benzo[b][1,4]diazepin-1-yl)-N-isopropyl-N-(4-methoxy-phenyl) acetamide], the activation at 1 µM (1 × 10^-6 M test compound) came to 10%.
The same measure, in the same setting: with `COc1ccc(N(C(=O)CN2C(=O)C(C)(CC(=O)Nc3ccccc3)C(=O)N(c3ccc(Cl)cc3)c3ccccc32)C(C)C)cc1` (stereo not shown) [Example 41] the figure was 40%.
Take `COc1ccc(N(C(=O)CN2C(=O)C(Cc3nn(Cc4ccccc4)c4ccccc34)(OC)C(=O)N(c3ccccc3)c3ccccc32)C(C)C)cc1` (stereo not shown) [Example 42, 2-[3-(1-Benzyl-1H-Indazol-3-ylmethyl)-3-methoxy-2,4-dioxo-5-phenyl-2,3,4,5-tetrahydro-benzo[b][1,4]diazepin-1-yl]-N-isopropyl-N-(4-methoxy-phenyl) acetamide]: under “1 × 10^-6 M test compound”, the activation at 1 µM came out at 16%.
As for `COc1ccc(N(C(=O)CN2C(=O)C(Cc3n[nH]c4ccccc34)(OC)C(=O)N(c3ccccc3)c3ccccc32)C(C)C)cc1` (stereo not shown) [Example 43, 2-[3-(1H-Indazol-3-ylmethyl)-3-methoxy-2,4-dioxo-5-phenyl-2,3,4,5-tetrahydro-benzo[b][1,4]diazepin-1-yl]-N-isopropyl-N-(4-methoxy-phenyl) acetamide], the activation at 30 µM was determined as 61%.
Turning to `COc1ccc(N(C(=O)CN2C(=O)C(Cc3nn(C)c4ccccc34)C(=O)N(c3ccccc3)c3ccccc32)C(C)C)cc1` (stereo not shown) [Example 44, N-Isopropyl-N-(4-methoxy-phenyl)-2-[3-(1-methyl-1H-indazol-3-ylmethyl)-2,4-dioxo-5-phenyl-2,3,4,5-tetrahydro-benzo[b][1,4]diazepin-1-yl]acetamide], the activation at 30 µM turned out to be 83%. Moreover, for the setting “1 × 10^-6 M test compound”, the activation at 1 µM turned out to be 57%.
Consider `COc1ccc(N(C(=O)CN2C(=O)C(C)(Cc3nn(C)c4ccccc34)C(=O)N(c3ccccc3)c3ccccc32)C(C)C)cc1` (stereo not shown) [Example 45, N-Isopropyl-N-(4-methoxy-phenyl)-2-[3-(1-methyl-1H-indazol-3-ylmethyl)-3-methyl-2,4-dioxo-5-phenyl-2,3,4,5-tetrahydro-benzo[b][1,4]diazepin-1-yl]acetamide], for which the activation at 1 µM (1 × 10^-6 M test compound) worked out at 57%.
